In paper PMC11671526, “β-caryophyllene sensitizes hepatocellular carcinoma cells to chemotherapeutics and inhibits cell malignancy through targeting MAPK signaling pathway” (Frontiers in Pharmacology, 2024):

Tested on: HepG2 cells
Assay: RNA-seq transcriptome analysis of differentially expressed genes
Assay type: cell-based, human
Conditions: BCP vs control HepG2
Procedure: The quality and concentration of RNA were examined by MOPS RNA electrophoresis and Eppendorf BioSpectrometer. The transcriptome analysis was performed by BGI-Wuhan China. The RNA-seq dataset of this study is accessible in the Gene Expression Omnibus (GEO) with an access number of GSE276099. The sequence library for each sample was prepared using the BGISEQ-500 platform with a 50-bp single-end (SE50) format. […]2.2.1) was used to align the clean reads to the reference genome and alignment of the clean reads to the reference genes was carried out using Bowtie2 (v2.4.5) ([Langmead and Salzberg, 2012]; [Kim et al., 2015]). Gene expression levels were calculated by RSEM (v1.3.1) ([Li and Dewey, 2011]). Analysis of differential gene expression was performed using edgeR in the Bioconductor software package ([Robinson et al., 2010]). Using a standard protocol, the RNA samples were also examined by reverse transcription and quantitative polymerase chain reaction (RT-qPCR). In brief, for reverse transcription, total RNA (1 μg) and gDNA wiper Mix were incubated at 42°C for 2 min. The samples were immediately incubated with a master mix containing 10 pmol/μL of poly (dT) primers at 37°C for 15 min and 85°C for 5 s. To detect the expression of specific genes by qPCR analysis, gene-specific primers (shown in Supplementary Table S1) were mixed with the ChamQ Universal SYBER qPCR Master Mix and the reaction was conducted using the Roche Lightcycler 480. The GAPDH value was used to normalize the results of each gene. The RNA-seq data of BCP-treated HepG2 cells were screened for DEGs. Gene symbols were turned into Enterz ID using the org.Hs.eg.db Bio-conductor R package. The cluster profiler (v4.6.2) package was used to perform the Kyoto Encyclopedia of Genes and Genomes (KEGG) and Gene Ontology (GO) enrichment analyses ([Wu et al., 2021]). Following the Transcript per million (TPM) data of the dataset, the line chart, and heatmap were plotted using ggplot2 and pheatmap R packages, respectively.

Structure (SMILES): C=C1CC/C=C(\C)CC[C@@H]2[C@@H]1CC2(C)C [BCP, β-caryophyllene]
- change RAPGEF3 (gene RAPGEF3, DEG direction): Down
- logFC RARRES2 (gene RARRES2, RNA-seq): -0.9419
- change RARRES2 (gene RARRES2, DEG direction): Down
- logFC RASSF5 (gene RASSF5, RNA-seq): -1.261
- change RASSF5 (gene RASSF5, DEG direction): Down
- logFC RETREG1 (gene RETREG1, RNA-seq): 0.6811
- change RETREG1 (gene RETREG1, DEG direction): Up
- logFC RHOB (gene RHOB, RNA-seq): 0.8378
- change RHOB (gene RHOB, DEG direction): Up
- logFC RHOBTB1 (gene RHOBTB1, RNA-seq): 0.6316
- change RHOBTB1 (gene RHOBTB1, DEG direction): Up
- logFC RILPL2 (gene RILPL2, RNA-seq): -0.6633
- change RILPL2 (gene RILPL2, DEG direction): Down
- logFC RNASE4 (gene RNASE4, RNA-seq): -1.067
- change RNASE4 (gene RNASE4, DEG direction): Down
- logFC RNF182 (gene RNF182, RNA-seq): 0.812
- change RNF182 (gene RNF182, DEG direction): Up
- logFC RNF208 (gene RNF208, RNA-seq): -0.8526
- change RNF208 (gene RNF208, DEG direction): Down
- logFC RSPO3 (gene RSPO3, RNA-seq): 1.091
- change RSPO3 (gene RSPO3, DEG direction): Up
- logFC RUNDC3B (gene RUNDC3B, RNA-seq): -1.157
- change RUNDC3B (gene RUNDC3B, DEG direction): Down
- logFC S100A3 (gene S100A3, RNA-seq): -0.7971
- change S100A3 (gene S100A3, DEG direction): Down
- logFC S100A4 (gene S100A4, RNA-seq): -0.5965
- change S100A4 (gene S100A4, DEG direction): Down
- logFC SCIN (gene SCIN, RNA-seq): -0.6372
- change SCIN (gene SCIN, DEG direction): Down
- logFC SDCCAG8 (gene SDCCAG8, RNA-seq): 0.7756
- change SDCCAG8 (gene SDCCAG8, DEG direction): Up
- logFC SEL1L (gene SEL1L, RNA-seq): 0.5873
- change SEL1L (gene SEL1L, DEG direction): Up
- logFC SELENOP (gene SELENOP, RNA-seq): 0.7184
- change SELENOP (gene SELENOP, DEG direction): Up
- logFC SEMA5A (gene SEMA5A, RNA-seq): 1.3518
- change SEMA5A (gene SEMA5A, DEG direction): Up
- logFC SIK2 (gene SIK2, RNA-seq): 0.6807
- change SIK2 (gene SIK2, DEG direction): Up
- logFC SLC5A3 (gene SLC5A3, RNA-seq): -0.7077
- change SLC5A3 (gene SLC5A3, DEG direction): Down
- logFC SLC9B2 (gene SLC9B2, RNA-seq): -0.6372
- change SLC9B2 (gene SLC9B2, DEG direction): Down
- logFC SLC16A6 (gene SLC16A6, RNA-seq): 1.033
- change SLC16A6 (gene SLC16A6, DEG direction): Up
- logFC SLC52A3 (gene SLC52A3, RNA-seq): -2.872
- change SLC52A3 (gene SLC52A3, DEG direction): Down
- logFC SLCO4A1 (gene SLCO4A1, RNA-seq): -0.7226
- change SLCO4A1 (gene SLCO4A1, DEG direction): Down
- logFC SLFN5 (gene SLFN5, RNA-seq): 0.8058
- change SLFN5 (gene SLFN5, DEG direction): Up
- logFC SLPI (gene SLPI, RNA-seq): -0.5978
- change SLPI (gene SLPI, DEG direction): Down
- logFC SNED1 (gene SNED1, RNA-seq): 0.7039
- change SNED1 (gene SNED1, DEG direction): Up
- logFC SNTB1 (gene SNTB1, RNA-seq): 0.7574
- change SNTB1 (gene SNTB1, DEG direction): Up
- logFC SORBS2 (gene SORBS2, RNA-seq): 0.9049
- change SORBS2 (gene SORBS2, DEG direction): Up
- logFC SPAG16 (gene SPAG16, RNA-seq): 0.7042
- change SPAG16 (gene SPAG16, DEG direction): Up
- logFC SPRY4 (gene SPRY4, RNA-seq): -0.9938
- change SPRY4 (gene SPRY4, DEG direction): Down
- logFC ST6GALNAC6 (gene ST6GALNAC6, RNA-seq): -0.6732
- change ST6GALNAC6 (gene ST6GALNAC6, DEG direction): Down
- logFC STARD10 (gene STARD10, RNA-seq): -0.7468
- change STARD10 (gene STARD10, DEG direction): Down
- logFC SULT1A4 (gene SULT1A4, RNA-seq): -0.8677
- change SULT1A4 (gene SULT1A4, DEG direction): Down
- logFC SV2B (gene SV2B, RNA-seq): 1.269
- change SV2B (gene SV2B, DEG direction): Up
- logFC SYN3 (gene SYN3, RNA-seq): -1.293
- change SYN3 (gene SYN3, DEG direction): Down
- logFC TAGLN (gene TAGLN, RNA-seq): 1.297
- change TAGLN (gene TAGLN, DEG direction): Up
- logFC TBC1D2 (gene TBC1D2, RNA-seq): 0.6507
- change TBC1D2 (gene TBC1D2, DEG direction): Up
- logFC TBC1D17 (gene TBC1D17, RNA-seq): -0.5911
- change TBC1D17 (gene TBC1D17, DEG direction): Down
- logFC TCIM (gene TCIM, RNA-seq): 0.8634
- change TCIM (gene TCIM, DEG direction): Up
- logFC TCN1 (gene TCN1, RNA-seq): -1.416
- change TCN1 (gene TCN1, DEG direction): Down
- logFC TEK (gene TEK, RNA-seq): -1.317
- change TEK (gene TEK, DEG direction): Down
- logFC TGFB3 (gene TGFB3, RNA-seq): -0.7747
- change TGFB3 (gene TGFB3, DEG direction): Down
- logFC TIMP3 (gene TIMP3, RNA-seq): -1.01
- change TIMP3 (gene TIMP3, DEG direction): Down
- logFC TLR4 (gene TLR4, RNA-seq): -0.8506
- change TLR4 (gene TLR4, DEG direction): Down
- logFC TM4SF1 (gene TM4SF1, RNA-seq): 0.7666
- change TM4SF1 (gene TM4SF1, DEG direction): Up
- logFC TMEM120B (gene TMEM120B, RNA-seq): -0.6536
- change TMEM120B (gene TMEM120B, DEG direction): Down
- logFC TNFSF15 (gene TNFSF15, RNA-seq): -1.596
- change TNFSF15 (gene TNFSF15, DEG direction): Down
- logFC TNXB (gene TNXB, RNA-seq): -0.7488
- change TNXB (gene TNXB, DEG direction): Down
- logFC TPBG (gene TPBG, RNA-seq): -0.9203
- change TPBG (gene TPBG, DEG direction): Down
- logFC TRNP1 (gene TRNP1, RNA-seq): -0.8357
- change TRNP1 (gene TRNP1, DEG direction): Down
- logFC USH1C (gene USH1C, RNA-seq): 0.9916
- change USH1C (gene USH1C, DEG direction): Up
- logFC VAMP1 (gene VAMP1, RNA-seq): -0.8271
- change VAMP1 (gene VAMP1, DEG direction): Down
- logFC VSIR (gene VSIR, RNA-seq): -0.6272
- change VSIR (gene VSIR, DEG direction): Down
- logFC XYLT1 (gene XYLT1, RNA-seq): 1.184
- change XYLT1 (gene XYLT1, DEG direction): Up
- logFC ZBED6CL (gene ZBED6CL, RNA-seq): -0.9925
- change ZBED6CL (gene ZBED6CL, DEG direction): Down
- logFC ZNF365 (gene ZNF365, RNA-seq): -1.468
- change ZNF365 (gene ZNF365, DEG direction): Down
- logFC ZRANB3 (gene ZRANB3, RNA-seq): 1.008
- change ZRANB3 (gene ZRANB3, DEG direction): Up
